Results: PubChem BioAssay AID200 (DTP/NCI, 2004)
Several values for one entry are separate records, joined by “and”; a condition that tells them apart may be missing. Identical values can stand only once. Toxic doses and inconclusive results are not listed.

System: B6C3F1 mice, B16 melanoma ip, median survival T/C
Experiment: NCI In Vivo Anticancer Drug Screen. Data for tumor model B16 Melanoma (intraperitoneal) in B6C3F1 mice
Conditions: endpoint: median survival time, schedule: Q01DX009 (ip), higher = longer survival
Outline: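 Tumor-bearing mice received test compound; a separate group got vehicle only. Survival was then compared, with results reported as treated over control.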

[1] = dose: 0.75 mg/kg/injection, vehicle: Klucel (hydroxypropylcellulose) (HPC)
[2] = dose: 12.5 mg/kg/injection, vehicle: saline
[3] = dose: 25.0 mg/kg/injection, vehicle: saline
[4] = dose: 50.0 mg/kg/injection, vehicle: saline
[5] = dose: 100.0 mg/kg/injection, vehicle: saline
[6] = dose: 100.0 mg/kg/injection, vehicle: Klucel (hydroxypropylcellulose) (HPC)
[7] = dose: 200.0 mg/kg/injection, vehicle: Klucel (hydroxypropylcellulose) (HPC)
[8] = dose: 3.12 mg/kg/injection, vehicle: saline with Tween-80
[9] = dose: 6.25 mg/kg/injection, vehicle: saline with Tween-80
[10] = dose: 12.5 mg/kg/injection, vehicle: saline with Tween-80

`C=C(OP(=O)(OC)OC)Sc1ccccc1C` was tested, and the T/C (dose: 0.06 mg/kg/injection, vehicle: Klucel (hydroxypropylcellulose) (HPC)) was 94 % of control, the T/C (dose: 0.12 mg/kg/injection, vehicle: Klucel (hydroxypropylcellulose) (HPC)) was 102 % of control and the T/C (dose: 0.25 mg/kg/injection, vehicle: Klucel (hydroxypropylcellulose) (HPC)) was 104 % of control. For the same compound, the T/C (dose: 0.38 mg/kg/injection, vehicle: Klucel (hydroxypropylcellulose) (HPC)) was 121 % of control, the T/C (dose: 0.5 mg/kg/injection, vehicle: Klucel (hydroxypropylcellulose) (HPC)) was 100 % of control and the T/C [1] was 107 % of control.
In the case of `O=C1N[C@H]2[C@H](O)[C@H](O)[C@@H](O)[C@H](O)[C@@H]2c2cc3c(c(O)c21)OCO3`, the T/C (dose: 1.5 mg/kg/injection, vehicle: saline + alcohol) is reported as 100 % of control, the T/C (dose: 1.56 mg/kg/injection, vehicle: saline + alcohol) is reported as 108 % of control and the T/C (dose: 3.0 mg/kg/injection, vehicle: saline + alcohol) is reported as 103 % of control. For the same compound, the T/C (dose: 6.0 mg/kg/injection, vehicle: saline + alcohol) was 114 % of control and the T/C (dose: 6.25 mg/kg/injection, vehicle: saline + alcohol) was 110 % of control.
In the case of `NCCSC(C[N+](=O)[O-])c1ccccc1Cl` (stereo unspecified), the T/C (dose: 6.25 mg/kg/injection, vehicle: saline) is reported as 103 % of control, the T/C [2] is reported as 114 % of control and the T/C [3] is reported as 93 % of control.
In the case of `CC1=CCC[C@@H]2C1(C)CCC(C)[C@@]2(C)CC1=CC(=O)C=CC1=O` (stereo partly specified), the T/C [1] is reported as 93 % of control and the T/C (dose: 1.25 mg/kg/injection, vehicle: Klucel (hydroxypropylcellulose) (HPC)) is reported as 95 % of control.
For `CC1=NN(c2ccccc2)C(=O)C1N=Nc1ccccc1S(=O)(=O)O` (stereo unspecified), the T/C [2] was 104 % of control, the T/C [3] was 94 % of control and the T/C [4] was 96 % of control.
For `CC(C)CC1C(=O)OC(C(C)C)C(=O)N(C)C(CC(C)C)C(=O)OC(C(C)C)C(=O)N(C)C(CC(C)C)C(=O)OC(C(C)C)C(=O)N(C)C(CC(C)C)C(=O)OC(C(C)C)C(=O)N1C` (stereo unspecified), the T/C (dose: 1.0 mg/kg/injection, vehicle: saline) was 97 % of control, the T/C (dose: 2.0 mg/kg/injection, vehicle: saline) was 99 % of control and the T/C (dose: 4.0 mg/kg/injection, vehicle: saline) was 104 % of control. For the same compound, the T/C (dose: 8.0 mg/kg/injection, vehicle: saline) was 102 % of control and the T/C (dose: 16.0 mg/kg/injection, vehicle: saline) was 101 % of control.
For `CCC1OCCN1C(C)C` (stereo unspecified), the T/C [3] was 107 % of control, the T/C [4] was 107 % of control and the T/C [5] was 98 % of control.
With `CCCCC(C)(CCN)CCCC` the T/C [3] was 105 % of control, the T/C [4] was 122 % of control and the T/C [5] was 101 % of control.
In the case of `C=CCSc1ncnc2c1ncn2C1OC(CO)C(O)C1O` (stereo unspecified), the T/C (dose: 37.5 mg/kg/injection, vehicle: saline with Tween-80) is reported as 102 % of control, the T/C (dose: 75.0 mg/kg/injection, vehicle: saline with Tween-80) is reported as 90 % of control and the T/C (dose: 150.0 mg/kg/injection, vehicle: saline with Tween-80) is reported as 97 % of control.
With `C=C(C(=O)O)C(N)C(=O)O` (stereo unspecified) the T/C [3] was 97 % of control, the T/C [4] was 106 % of control and the T/C [5] was 106 % of control. For the same compound, the T/C (dose: 200.0 mg/kg/injection, vehicle: saline) was 90 % of control.
`CC(C)(C)OC(=O)NC(Cc1cnc[nH]1)C(=O)O` (stereo unspecified) was tested, and the T/C [6] was 97 % of control, the T/C [7] was 94 % of control and the T/C (dose: 400.0 mg/kg/injection, vehicle: Klucel (hydroxypropylcellulose) (HPC)) was 106 % of control.
In the case of `CCCC(C(=O)OCCN1CCCC12CCCCC2)C1CCCC1` (stereo unspecified), the T/C [2] is reported as 105 % of control, the T/C [3] is reported as 91 % of control and the T/C [4] is reported as 91 % of control.
With `[Cl][Hg][Cl]` the T/C (dose: 0.05 mg/kg/injection, vehicle: saline) was 105 % of control, the T/C (dose: 0.06 mg/kg/injection, vehicle: saline) was 96 % of control and the T/C (dose: 0.1 mg/kg/injection, vehicle: saline) was 97 % of control. For the same compound, the T/C (dose: 0.12 mg/kg/injection, vehicle: saline) was 104 % of control, the T/C (dose: 0.2 mg/kg/injection, vehicle: saline) was 100 % of control and the T/C (dose: 0.25 mg/kg/injection, vehicle: saline) was 104 % of control. The T/C (dose: 0.4 mg/kg/injection, vehicle: saline) was 102 % of control, the T/C (dose: 0.5 mg/kg/injection, vehicle: saline) was 86 % of control and the T/C (dose: 0.8 mg/kg/injection, vehicle: saline) was 86 % of control.
`C=Cc1cc(OC)c2c(c1)c(=O)oc1c2cc(OC)c2c(O)ccc(C3OC(C)C(O)C(C)(O)C3O)c21` (stereo unspecified) was tested, and the T/C (dose: 2.5 mg/kg/injection, vehicle: DMSO) was 120 % of control, the T/C (dose: 5.0 mg/kg/injection, vehicle: DMSO) was 124 % of control and 103 % of control and the T/C (dose: 20.0 mg/kg/injection, vehicle: DMSO) was 158 % of control. The T/C (dose: 40.0 mg/kg/injection, vehicle: DMSO) was 169 % of control and 196 % of control and the T/C (dose: 80.0 mg/kg/injection, vehicle: DMSO) was 207 % of control.
With `CC(C)(C)OC(=O)NC(CSCc1ccccc1)C(=O)ON1C(=O)CCC1=O` (stereo unspecified) the T/C [6] was 94 % of control and the T/C [7] was 100 % of control.
For `N#CN=[N+]([O-])c1ccc(C(=O)O)cc1`, the T/C (dose: 1.87 mg/kg/injection, vehicle: Klucel (hydroxypropylcellulose) (HPC)) was 99 % of control and 101 % of control, the T/C (dose: 3.75 mg/kg/injection, vehicle: Klucel (hydroxypropylcellulose) (HPC)) was 96 % of control and 105 % of control and the T/C (dose: 7.5 mg/kg/injection, vehicle: Klucel (hydroxypropylcellulose) (HPC)) was 95 % of control and 102 % of control. The T/C (dose: 15.0 mg/kg/injection, vehicle: Klucel (hydroxypropylcellulose) (HPC)) was 89 % of control and 91 % of control and the T/C (dose: 30.0 mg/kg/injection, vehicle: Klucel (hydroxypropylcellulose) (HPC)) was 90 % of control and 97 % of control.
In the case of `COc1cc2c(cc1O)C1CC(CC3CCCCN31)OC(=O)/C=C\c1ccc(O)c-2c1` (stereo unspecified), the T/C (dose: 15.0 mg/kg/injection, vehicle: saline) is reported as 101 % of control, the T/C (dose: 30.0 mg/kg/injection, vehicle: saline) is reported as 104 % of control and the T/C (dose: 60.0 mg/kg/injection, vehicle: saline) is reported as 114 % of control. For the same compound, the T/C (dose: 120.0 mg/kg/injection, vehicle: saline) was 102 % of control.
For `CS(C)(O)NC(N)=O`, the T/C (dose: 50.0 mg/kg/injection, vehicle: water) was 105 % of control, the T/C (dose: 100.0 mg/kg/injection, vehicle: water) was 103 % of control and the T/C (dose: 200.0 mg/kg/injection, vehicle: water) was 100 % of control. For the same compound, the T/C (dose: 400.0 mg/kg/injection, vehicle: water) was 105 % of control.
For `OCc1c(CO)c(-c2ccc(Cl)cc2)n2c1CCC2`, the T/C (dose: 25.0 mg/kg/injection, vehicle: distilled water + Tween-80) was 94 % of control, the T/C (dose: 50.0 mg/kg/injection, vehicle: distilled water + Tween-80) was 107 % of control and the T/C (dose: 100.0 mg/kg/injection, vehicle: distilled water + Tween-80) was 121 % of control. The T/C (dose: 200.0 mg/kg/injection, vehicle: distilled water + Tween-80) was 198 % of control.
With `Cc1c2cc(Cl)c3ccccc3c2c[n+]2ccccc12` the T/C [8] was 103 % of control, the T/C [9] was 108 % of control and the T/C [10] was 112 % of control. The T/C (dose: 25.0 mg/kg/injection, vehicle: saline with Tween-80) was 101 % of control and the T/C (dose: 50.0 mg/kg/injection, vehicle: saline with Tween-80) was 108 % of control.
With `Cc1cc([NH-])c([NH-])cc1C.[Cl][Pt+2][Cl]` the T/C (dose: 1.25 mg/kg/injection, vehicle: saline with Tween-80) was 112 % of control and the T/C (dose: 10.0 mg/kg/injection, vehicle: saline with Tween-80) was 161 % of control.
`OC1COC(c2ccccc2)OC1C1OC(c2ccccc2)OC2COC(c3ccccc3)OC21` (stereo unspecified) was tested, and the T/C [8] was 93 % of control, the T/C [9] was 93 % of control and the T/C [10] was 91 % of control.
